Measurements from patent US7754753B2, “Analgesic and anti-inflammatory compositions containing Cox-2-inhibitors” (Wyeth LLC, priority 2000, dated 2010).

Test system: Male Swiss mice
Test: acetic acid-induced writhing test (mouse writhing model)
Type: in vivo
Conditions: for oral A50 value (antinociceptive dose-response): +30 minutes before acetic acid, 95% confidence limits for ibuprofen 17.57-40.58
Description: A modification of the acetic acid-induced writhing test (as disclosed in Porreca, F., H. I. Mosberg, J. R. Omnaas, T. F. Burks and A. Cowan in Supraspinal and spinal potency of selective opioid agonists in the mouse writhing test (Journal of Pharmacology and Experimental Therapeutics 240: 890-894, 1987)) was conducted. The mouse writhing model as described is commonly used to investigate analgesic efficacy and potential synergism with combinations of drugs.
Male Swiss mice weighing 25-30 g were obtained from Ace Laboratories. They were each placed in individual rectangular observation boxes and allowed to acclimate for at least 1 hour. A placebo vehicle of 1% Tween 80/water was prepared.
Groups of 8-10 mice each received the test agent or placebo vehicle (in an amount of 0.25 ml/25 grams of body weight) orally via stomach tube. Those mice that received the placebo vehicle composed the control group. After 20, 30, 40 or 60 minutes, each mouse was injected parenterally with a 0.6% acetic acid solution (0.25 ml/25 g body weight).
Percent inhibition of writhing was expressed as: (Means writhes in control group)−(Writhes by individual mouse)×100/(Mean writhes in control group)
A preliminary study was conducted at +30 minutes to establish antinociceptive dose-response curves for ibuprofen (obtained from Sigma Chemical) and celecoxib (manufactured by G.D. Searle & Co. in 200 mg capsules and marketed under the trademark Celebrex®), respectively.
A second group of mice (n=8-10) received […] of ibuprofen followed immediately by the placebo vehicle. At either +20, +40 or +60 minutes following administration, the animals were injected i.p. with 0.6% acetic acid (0.25 ml/25 g body weight) and run in the writhing test.

[1] = dose 20 mg/kg oral, +30 minutes
[2] = dose 40 mg/kg oral, +30 minutes
[3] = dose 80 mg/kg oral, +30 minutes

| Structure (SMILES) | effect of celecoxib on ibuprofen analgesia in words (celecoxib 20 mg/kg given with ibuprofen 29 mg/kg, +20 to +60 min) | antinociceptive activity in words (celecoxib 20 mg/kg oral alone) | Mean % inhibition + s.e.m. (writhing) [1] | Mean % inhibition + s.e.m. (writhing) [2] | Mean % inhibition + s.e.m. (writhing) [3] | oral A50 value (antinociceptive dose-response) (oral) | Mean % inhibition + s.e.m. (writhing) (time 20 min, ibuprofen 29 mg/kg followed immediately by celecoxib 20 mg/kg or placebo vehicle, oral) | Mean % inhibition + s.e.m. (writhing) (time 40 min, ibuprofen 29 mg/kg followed immediately by celecoxib 20 mg/kg or placebo vehicle, oral) | Mean % inhibition + s.e.m. (writhing) (time 60 min, ibuprofen 29 mg/kg followed immediately by celecoxib 20 mg/kg or placebo vehicle, oral) |
| --- | --- | --- | --- | --- | --- | --- | --- | --- | --- |
| Cc1ccc(-c2cc(C(F)(F)F)nn2-c2ccc(S(N)(=O)=O)cc2)cc1 [Celecoxib, 4-[5-(4-methylphenyl)-3-(trifluoromethyl)-1H-pyrazol-1-yl]benzenesulfonamide] | potentiated the ibuprofen through faster onset and duration of action | essentially inactive | 7.5 ± 3.38% | 21.7 ± 4.17% | 28.3 ± 8.34% | > 80 mg/kg | – | – | – |
| CC(C)Cc1ccc(C(C)C(=O)O)cc1 (stereo not shown) [Ibuprofen, ibuprofen] | – | – | 38.7 ± 11.2% | 59.4 ± 9.58% | 74.0 ± 4.68% | 29.07 mg/kg | 36.4 ± 3.2% | 14.1 ± 6.2% | 27.3 ± 8.2% |
